In patent US7666848B2, “Thiophene glycoside derivatives, processes for the preparation, medicaments comprising these compounds, and the use thereof” (Sanofi-Aventis Deutschland GmbH, priority 2002, dated 2010):

Test system: rabbit renal cortex brush border membrane vesicles
Test: Uptake of [14C]-labeled glucose into brush border membrane vesicles (transport assay, membrane filtration method)
Format: biochemical
Settings: transport assay on rabbit renal cortex brush border membrane vesicles; 10 μM [14C]D glucose, 30° C., 15 seconds; β-D-gluco form

SMILES	IC25 [nM]
COc1ccc(Cc2sc(C(F)(F)F)cc2OC2OC(CO)C(O)C(O)C2O)cc1 (centres unmarked) [Example 54]	1400
COc1ccc(Cc2sccc2OC2OC(CO)C(O)C(O)C2O)cc1 (centres unmarked) [Example 7, 2-Hydroxymethl-6-[2-(4-methoxy-benzyl)-thiophen-3-yloxy]-tetrahydro-pyran-3,4,5-triol]	1100
